Experimental data: article PMC12169614, “Exploring Long Arm Amide-Linked Side Chains in the Design of Antifungal Azole Inhibitors of Sterol 14α-Demethylase (CYP51)” (Journal of Medicinal Chemistry, 2025)
Read-outs that look alike come from different tables or passages of the source.

Key:
[1] = test system: Y570 ABC efflux pump CaCDR1B overexpressed; test: Agarose (disk) diffusion assay, strain Y570; assay type: cell-based, S. cerevisiae; details: 10 nmol/disk, 30 °C, 48 h
Description: (§1) Final compounds were screened as racemic mixtures using agarose diffusion assays to visualize their inhibitory activity against a panel of recombinant S. cerevisiae strains i.e., S. cerevisiae strains expressing control levels of wild-type CYP51 (ScCYP51), overexpressed wild-type ScCYP51, overexpressed azole-resistant ScCYP51 Y140F/H mutations and overexpressed C. albicans efflux pumps MDR1a or CDR1B (Figure and Table S1).
(§2) The susceptibilities of S. cerevisiae and Candida species strains to azole compounds were observed as zones of growth inhibition in agarose diffusion assays. The disk diffusion assays were carried out as described by Keniya et al. Complete supplement mixture (CSM) agarose (0.6% agarose [wt/vol]; 20 mL of synthetic defined medium (SD); pH 6.8–7) was solidified in a rectangular Petri dish which was overlaid with CSM agarose (0.6% [wt/vol]; 5 mL; pH 6.8–7) seeded with yeast cells at an optical density (OD600) of 0.008 (118,000 cells per 1 mL of overlay). Azole compounds (10 nmol/disk) were applied to sterile BBL paper disks (Becton Dickinson Co., Sparks, MD) and placed on solidified overlays. Cell growth was assessed after incubation at 30 °C for 48 h.

[2] = test system: Y525 MFS efflux pump CaMDR1a overexpressed; test: Agarose (disk) diffusion assay, strain Y525; assay type: cell-based, S. cerevisiae; details: 10 nmol/disk, 30 °C, 48 h
Description: as §1, §2

[3] = test system: Y2513 ScCYP51 Y140H mutant; test: Agarose (disk) diffusion assay, strain Y2513; assay type: cell-based, S. cerevisiae; details: 10 nmol/disk, 30 °C, 48 h
Description: as §1, §2

[4] = test system: Y2301 ScCYP51 Y140F mutant; test: Agarose (disk) diffusion assay, strain Y2301; assay type: cell-based, S. cerevisiae; details: 10 nmol/disk, 30 °C, 48 h
Description: as §1, §2

[5] = test system: Y2411 azole sensitive control strain; test: Agarose (disk) diffusion assay, strain Y2411; assay type: cell-based, S. cerevisiae; details: 10 nmol/disk, 30 °C, 48 h
Description: as §1, §2

[6] = test system: Y2300 ScCYP51 overexpressed; test: Agarose (disk) diffusion assay, strain Y2300; assay type: cell-based, S. cerevisiae; details: 10 nmol/disk, 30 °C, 48 h
Description: as §1, §2

CaCYP51 Y132F = CaCYP51 Y132F (Candida albicans, UniProt P10613, Y132F); details: footnote b; ref number not given; cited from earlier work
wild-type CaCYP51 = wild-type CaCYP51 (Candida albicans, UniProt P10613); test: Reconstituted CYP51 activity assay, wild type; assay type: biochemical, C. albicans; details: 1 μM CaCyp51, 50 μM lanosterol; duplicate, mean ± SD
Protocol: (§3) The reconstituted CYP51 assay previously described contained 1 μM CaCyp51, 2 μM Homo sapiens cytochrome P450 reductase and 50 μM lanosterol in a final volume of 500 μL. After the addition of azole in DMSO (2.5 μL), reactions were incubated at 37 °C for 10 min prior to initiation by the addition of 100 μL 20 mM β-NADPH-Na4. Sterol substrates and products were extracted with ethyl acetate, derivatized with N,O-bis(trimethylsilyl)-trifluoroacetamide (BSTFA)–trimethylchlorosilane (TMCS) (99:1) in the presence of anhydrous pyridine, and analyzed by GC/MS as described previously. IC50 determinations were performed in duplicate. Nonlinear regression of inhibitor concentration vs normalized response was calculated by GraphPad Prism 10.4.0 for Windows (GraphPad Software, Boston, Massachusetts, USA, www.graphpad.com).

CaCYP51 Y132H + K143R [7] = target: T1, CaCYP51 Y132H + K143R (Candida albicans, UniProt P10613, K143R/Y132H); test: Reconstituted CYP51 activity assay, Y132H + K143R; assay type: biochemical, C. albicans; details: 1 μM CaCyp51, 50 μM lanosterol; duplicate, mean ± SD
Protocol: as §3

Y2459 OE CaCYP51 CaCpr = test: MIC80 determination, strain Y2459; assay type: cell-based, S. cerevisiae; details: Saccharomyces cerevisiae, 48 h, pH 6.8
Protocol: (§4) Cells were seeded at an OD600 nm of 0.005 (1.5 × 10^4 CFU), and the plates were incubated at 30 °C with shaking at 200 rpm for 48 h for S. cerevisiae strains and 24 h for C. albicans . Cell growth was assessed by measuring the OD600 nm using a Synergy 2 multimode plate reader (BioTek Instruments, VT, USA). Each MIC80 was determined using triplicate measurements for pools of 4 clones of each strain in three separate experiments.

[8] = test system: Y2746 OE AfCYP51A AfCPR AfERG6; test: MIC80 determination, strain Y2746; assay type: cell-based, S. cerevisiae; details: Saccharomyces cerevisiae
Protocol: as §4

Y2374 OE CgCYP51 = test: MIC80 determination, strain Y2374; assay type: cell-based, S. cerevisiae; details: Saccharomyces cerevisiae
Protocol: as §4

[9] = test system: Y2747 OE AfCYP51B AfCPR AfERG6; test: MIC80 determination, strain Y2747; assay type: cell-based, S. cerevisiae; details: Saccharomyces cerevisiae
Protocol: as §4

Y1 = test: MIC80 determination, C. albicans clinical isolate Y1; assay type: cell-based; details: Candida albicans, pH 7, 24 h
Protocol: as §4

C. albicans = test system: C. albicans; parameters: method as in number not given; details: ref number not given; cited from earlier work
MCF-10A cells = test: Viability (CellTiter Blue) assay; assay type: cell-based, human; details: 48 h, 10 μM to 1 pM
Protocol: Human epithelial breast cells, MCF-10A, were routinely cultured in DMEM/F-12 (Fisher Scientific, Loughborough, UK) containing 5% heat-inactivated horse serum (ThermoFisher Scientific, UK), 20 ng/mL hEGF (Merck Life Science, Dorset, UK), 500 ng/mL hydrocortisone (Merck Life Science, Dorset, UK) and 10 μg/mL insulin (Merck Life Science, Dorset, UK) under tissue culture conditions (37 °C, 5% CO2 in a humidified incubator). Cells were passaged upon reaching confluency using 0.25% Trypsin/EDTA (Fisher Scientific, Loughborough, UK) for a maximum of 15 passages from defrosting. […].
Cells were seeded in 100 μL of complete medium per well in a black, flat-bottomed, 96-well tissue-culture-treated plate (Fisher Scientific, Loughborough, UK) at a density of 4000 cells/well and incubated under tissue culture conditions for 24 h. Cells were then treated by mixing in an additional 100 μL of drug/diluent control in complete medium to give final concentrations of 10 μM–1 pM. DMSO was used as a vehicle control, and as a positive toxic control, staurosporine was added at a final concentration of 10 μM. Cells were then incubated for 48 h under tissue culture conditions before the treatments were replaced with fresh media before performing the CellTiter Blue assay (Promega, Southampton, UK) was performed following the manufacturer's instructions. […]

Y2651 OE CYP51 F5 RaCPR = test: MIC80 determination, strain Y2651; assay type: cell-based, S. cerevisiae; details: Saccharomyces cerevisiae
Protocol: as §4

Y2766 OE CauCDR1 = test: MIC80 determination, strain Y2766; assay type: cell-based, S. cerevisiae; details: Saccharomyces cerevisiae
Protocol: as §4

Y610 FHB1 = test: MIC80 determination, C. albicans clinical isolate Y610 FHB1; assay type: cell-based; details: Candida albicans; C. albicans clinical isolate Y610 FHB1 (weakly expresses CaCDR1); pH 7, 24 h
Protocol: as §4

Y2649 OE CYP51 F1 RaCPR = test: MIC80 determination, strain Y2649; assay type: cell-based, S. cerevisiae; details: Saccharomyces cerevisiae
Protocol: as §4

Y611 FHB3 = test: MIC80 determination, C. albicans clinical isolate Y611 FHB3; assay type: cell-based; details: Candida albicans, 24 h, pH 7
Protocol: as §4

Y71 SC5314 = test: MIC80 determination, C. albicans clinical isolate Y71 SC5314; assay type: cell-based; details: Candida albicans; C. albicans clinical isolate Y71 SC5314; pH 7, 24 h
Protocol: as §4

Y2721 OE CpCYP51 = test: MIC80 determination, strain Y2721; assay type: cell-based, S. cerevisiae; details: Saccharomyces cerevisiae
Protocol: as §4

Y2411 Endog. ScCYP51 = test: MIC80 determination, strain Y2411; assay type: cell-based, S. cerevisiae; details: Saccharomyces cerevisiae; strain Y2411 Endog. ScCYP51; SD pH 6.8, 30 °C, 48 h
Protocol: as §4

Y2769 OE CauCYP51 K143R = test: MIC80 determination, strain Y2769; assay type: cell-based, S. cerevisiae; details: Saccharomyces cerevisiae
Protocol: as §4

Y2768 OE CauCYP51 Y132F = test: MIC80 determination, strain Y2768; assay type: cell-based, S. cerevisiae; details: Saccharomyces cerevisiae
Protocol: as §4

Y2300 OE ScCYP51 = test: MIC80 determination, strain Y2300; assay type: cell-based, S. cerevisiae; details: Saccharomyces cerevisiae, 48 h, pH 6.8
Protocol: as §4

2711 CnCYP51 OE CnCPR = test: MIC80 determination, strain 2711; assay type: cell-based, S. cerevisiae; details: Saccharomyces cerevisiae
Protocol: as §4

Y525 OE CaMDR1a = test: MIC80 determination, strain Y525; assay type: cell-based, S. cerevisiae; details: Saccharomyces cerevisiae, 48 h, pH 6.8
Protocol: as §4

Y570 OE CaCDR1B = test: MIC80 determination, strain Y570; assay type: cell-based, S. cerevisiae; details: Saccharomyces cerevisiae, 48 h, pH 6.8
Protocol: as §4

Y2767 OE CauCYP51 = test: MIC80 determination, strain Y2767; assay type: cell-based, S. cerevisiae; details: Saccharomyces cerevisiae
Protocol: as §4

Y2716 OE CpCYP51 Y132F = test: MIC80 determination, strain Y2716; assay type: cell-based, S. cerevisiae; details: Saccharomyces cerevisiae
Protocol: as §4

Y2301 OE ScCYP51 Y140F = test: MIC80 determination, strain Y2301; assay type: cell-based, S. cerevisiae; details: Saccharomyces cerevisiae, 48 h, pH 6.8
Protocol: as §4

Y2513 OE ScCYP51 Y140H = test: MIC80 determination, strain Y2513; assay type: cell-based, S. cerevisiae; details: Saccharomyces cerevisiae, 48 h, pH 6.8
Protocol: as §4

Y433 OE CgCDR1 = test: MIC80 determination, strain Y433; assay type: cell-based, S. cerevisiae; details: Saccharomyces cerevisiae
Protocol: as §4

CaCYP51 Y132H + K143R [10] = target: T1, CaCYP51 Y132H + K143R; details: footnote b; ref number not given; cited from earlier work
Y2765 OE CauMDR1 = test: MIC80 determination, strain Y2765; assay type: cell-based, S. cerevisiae; details: Saccharomyces cerevisiae
Protocol: as §4

CYP3A4 = CYP3A4 (Homo sapiens, UniProt P08684); parameters: method as in numbers not given; details: literature values for azole antifungals; ref numbers not given; cited from earlier work
Chain of CYP3A4 (P08684 whole entry): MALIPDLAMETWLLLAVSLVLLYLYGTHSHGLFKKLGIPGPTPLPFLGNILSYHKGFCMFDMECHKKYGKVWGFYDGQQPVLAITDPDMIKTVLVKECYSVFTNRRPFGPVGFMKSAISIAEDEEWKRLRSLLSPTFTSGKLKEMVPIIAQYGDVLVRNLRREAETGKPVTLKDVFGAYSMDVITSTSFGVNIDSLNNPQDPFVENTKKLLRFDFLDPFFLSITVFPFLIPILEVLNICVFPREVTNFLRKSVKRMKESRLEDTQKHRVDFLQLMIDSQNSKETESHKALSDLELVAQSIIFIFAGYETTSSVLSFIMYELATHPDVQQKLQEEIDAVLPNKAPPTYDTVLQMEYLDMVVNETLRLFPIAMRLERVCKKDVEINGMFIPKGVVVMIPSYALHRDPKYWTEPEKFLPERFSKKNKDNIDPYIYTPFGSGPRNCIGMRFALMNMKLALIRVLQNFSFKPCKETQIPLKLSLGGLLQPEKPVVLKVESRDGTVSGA

Chain of CaCYP51 Y132F (P10613 whole entry Y132F): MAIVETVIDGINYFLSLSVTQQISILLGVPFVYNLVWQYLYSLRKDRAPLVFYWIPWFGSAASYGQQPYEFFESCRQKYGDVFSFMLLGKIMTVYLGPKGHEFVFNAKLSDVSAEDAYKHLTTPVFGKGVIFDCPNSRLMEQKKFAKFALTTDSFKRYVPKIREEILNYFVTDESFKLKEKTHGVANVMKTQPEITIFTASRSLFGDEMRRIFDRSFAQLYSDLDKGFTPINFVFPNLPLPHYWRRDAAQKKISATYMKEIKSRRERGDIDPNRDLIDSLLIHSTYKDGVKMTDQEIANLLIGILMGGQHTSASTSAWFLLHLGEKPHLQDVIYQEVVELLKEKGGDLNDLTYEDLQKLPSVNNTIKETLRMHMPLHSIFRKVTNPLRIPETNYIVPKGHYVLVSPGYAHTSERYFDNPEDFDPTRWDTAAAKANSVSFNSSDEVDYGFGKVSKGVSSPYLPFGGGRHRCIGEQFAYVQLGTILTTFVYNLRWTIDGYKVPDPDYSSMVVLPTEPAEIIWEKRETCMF
T1 sequence (P10613 whole entry Y132H/K143R): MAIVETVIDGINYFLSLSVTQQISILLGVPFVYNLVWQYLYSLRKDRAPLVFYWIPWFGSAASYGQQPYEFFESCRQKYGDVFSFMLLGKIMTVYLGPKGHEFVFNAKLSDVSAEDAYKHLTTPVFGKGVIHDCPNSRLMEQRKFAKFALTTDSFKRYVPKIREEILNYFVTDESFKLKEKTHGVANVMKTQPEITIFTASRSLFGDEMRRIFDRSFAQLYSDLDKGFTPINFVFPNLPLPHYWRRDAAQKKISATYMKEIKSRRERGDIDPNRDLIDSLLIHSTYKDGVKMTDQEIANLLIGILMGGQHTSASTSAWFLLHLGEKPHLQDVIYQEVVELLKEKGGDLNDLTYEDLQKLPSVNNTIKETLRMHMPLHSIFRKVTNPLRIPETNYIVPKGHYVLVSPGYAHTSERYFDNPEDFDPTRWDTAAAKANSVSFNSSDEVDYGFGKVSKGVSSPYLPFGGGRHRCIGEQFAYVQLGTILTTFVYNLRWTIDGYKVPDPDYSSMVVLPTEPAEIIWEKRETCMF
Chain of wild-type CaCYP51 (P10613 whole entry): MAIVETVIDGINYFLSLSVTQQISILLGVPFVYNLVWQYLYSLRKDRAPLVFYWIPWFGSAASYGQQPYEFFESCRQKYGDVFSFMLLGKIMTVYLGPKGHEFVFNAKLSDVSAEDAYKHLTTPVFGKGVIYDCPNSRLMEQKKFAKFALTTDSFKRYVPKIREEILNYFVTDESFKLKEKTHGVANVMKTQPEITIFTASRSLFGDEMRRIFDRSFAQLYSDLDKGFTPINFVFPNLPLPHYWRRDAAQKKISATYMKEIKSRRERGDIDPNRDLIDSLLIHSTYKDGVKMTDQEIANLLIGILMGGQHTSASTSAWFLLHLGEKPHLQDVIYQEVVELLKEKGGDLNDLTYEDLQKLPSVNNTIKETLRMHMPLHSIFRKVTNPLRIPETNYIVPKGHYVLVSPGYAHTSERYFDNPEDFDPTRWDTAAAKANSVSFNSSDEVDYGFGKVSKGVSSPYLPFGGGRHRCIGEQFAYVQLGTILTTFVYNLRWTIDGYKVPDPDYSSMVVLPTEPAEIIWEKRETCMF

SMILES: O=C(Nc1ccc(CNC(=O)C(Cn2cncn2)c2ccc(F)cc2F)cc1)c1ccc(Cl)cc1 (stereo not drawn) [Compound 44, 4-Chloro-N-(4-((2-(2,4-difluorophenyl)-3-(1H-1,2,4-triazol-1-yl)propanamido)methyl)phenyl)benzamide]
- zone of growth inhibition (inhibitory activity in words) [1]: not the CaCDR1B expressing strain
- zone of growth inhibition (inhibitory activity in words) [2]: retained some inhibitory activity
- zone of growth inhibition (inhibitory activity in words) [3]: reduced activity
- zone of growth inhibition (inhibitory activity in words) [4]: reduced activity
- zone of growth inhibition (inhibitory activity in words) [5]: strongly inhibited
- zone of growth inhibition (inhibitory activity in words) [6]: strongly inhibited

SMILES: OC(Cn1cncn1)(Cn1cncn1)c1ccc(F)cc1F [FLC, fluconazole, reference compound]
- IC50 (CaCYP51 Y132F): 0.606 ± 0.066 µM
- IC50 (wild-type CaCYP51): 0.335 ± 0.017 µM
- IC50 (CaCYP51 Y132H + K143R [7]): 25.7 ± 3.55 µM

SMILES: CC[C@@H]([C@H](C)O)n1ncn(-c2ccc(N3CCN(c4ccc(OC[C@@H]5CO[C@@](Cn6cncn6)(c6ccc(F)cc6F)C5)cc4)CC3)cc2)c1=O [PCZ, posaconazole, reference compound]
- IC50 (CaCYP51 Y132F): 0.343 ± 0.02 µM
- MIC80 (Y2459 OE CaCYP51 CaCpr): 0.22 ± 0.07 µM
- MIC80 [8]: 0.033 ± 0.014 µM
- MIC80 (Y2374 OE CgCYP51): 0.332 µM
- MIC80 [9]: 0.07 ± 0.024 µM
- MIC80 (Y1): 0.07 µM
- MIC (C. albicans): ≤ 0.03 mg/L
- cell viability (tolerance in words) (MCF-10A cells): no difference observed
- MIC80 (Y2651 OE CYP51 F5 RaCPR): 0.054 ± 0.011 µM
- MIC80 (Y2766 OE CauCDR1): 0.971 ± 0.049 µM
- MIC80 (Y610 FHB1): 0.151 ± 0.016 µM
- MIC80 (Y2649 OE CYP51 F1 RaCPR): 0.1 µM
- MIC80 (Y611 FHB3): 0.53 µM
- MIC80 (Y71 SC5314): 0.073 µM
- MIC80 (Y2721 OE CpCYP51): 0.122 ± 0.037 µM
- MIC80 (Y2411 Endog. ScCYP51): 0.097 ± 0.04 µM
- MIC80 (Y2769 OE CauCYP51 K143R): 0.117 ± 0.005 µM
- MIC80 (Y2768 OE CauCYP51 Y132F): 0.168 ± 0.006 µM
- MIC80 (Y2300 OE ScCYP51): 2 ± 0.05 µM
- MIC80 (2711 CnCYP51 OE CnCPR): 0.035 ± 0.015 µM
- MIC80 (Y525 OE CaMDR1a): 0.218 µM
- MIC80 (Y570 OE CaCDR1B): > 25 µM
- MIC80 (Y2767 OE CauCYP51): 0.196 ± 0.022 µM
- MIC80 (Y2716 OE CpCYP51 Y132F): 0.135 ± 0.058 µM
- MIC80 (Y2301 OE ScCYP51 Y140F): 0.191 ± 0.041 µM
- MIC80 (Y2513 OE ScCYP51 Y140H): 0.147 ± 0.057 µM
- MIC80 (Y433 OE CgCDR1): 23.8 µM
- IC50 (CaCYP51 Y132H + K143R [10]): 0.196 ± 0.007 µM
- MIC80 (Y2765 OE CauMDR1): 0.096 ± 0.003 µM

SMILES: O[C@@](Cn1cnnn1)(c1ccc(F)cc1F)C(F)(F)c1ccc(-c2ccc(OCC(F)(F)F)cc2)cn1 [VT-1161, Oteseconazole]
- IC50 (CYP3A4): 140 µM
